In PubChem BioAssay (NCI):
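GI50 is the concentration that inhibits growth by half. At the TGI there is no net growth.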

How the values were obtained:
Experiment in all cases: NCI tumour cell line growth inhibition, 384-well format
T-47D breast = test system: T-47D breast
SW-620 colon = test system: SW-620 colon
HS 578T breast = test system: HS 578T breast
ACHN renal = test system: ACHN renal
PC-3 prostate = test system: PC-3 prostate
RXF 393 renal = test system: RXF 393 renal
OVCAR-8 ovarian = test system: OVCAR-8 ovarian
SN12C renal = test system: SN12C renal
NCI-H322M lung = test system: NCI-H322M lung
SNB-75 CNS = test system: SNB-75 CNS
DU-145 prostate = test system: DU-145 prostate
SF-268 CNS = test system: SF-268 CNS
MDA-MB-231 breast = test system: MDA-MB-231 breast
CAKI-1 renal = test system: CAKI-1 renal
KM12 colon = test system: KM12 colon
A549 NSCLC = test system: A549 NSCLC
SF-295 CNS = test system: SF-295 CNS
HOP-92 NSCLC = test system: HOP-92 NSCLC
OVCAR-5 ovarian = test system: OVCAR-5 ovarian
UACC-62 melanoma = test system: UACC-62 melanoma
U251 glioblastoma = test system: U251 glioblastoma
TK-10 renal = test system: TK-10 renal
786-0 renal = test system: 786-0 renal
OVCAR-4 ovarian = test system: OVCAR-4 ovarian
CCRF-CEM leukemia = test system: CCRF-CEM leukemia
K-562 leukemia = test system: K-562 leukemia
LOX IMVI melanoma = test system: LOX IMVI melanoma
SNB-19 CNS = test system: SNB-19 CNS
SF-539 CNS = test system: SF-539 CNS
A498 renal = test system: A498 renal
HT29 colon = test system: HT29 colon
HCT-15 colon = test system: HCT-15 colon
SK-MEL-28 melanoma = test system: SK-MEL-28 melanoma
NCI/ADR-RES ovarian = test system: NCI/ADR-RES ovarian
NCI-H23 lung = test system: NCI-H23 lung
HCT-116 colon = test system: HCT-116 colon
M14 melanoma = test system: M14 melanoma
HL-60(TB) leukemia = test system: HL-60(TB) leukemia
SK-OV-3 ovarian = test system: SK-OV-3 ovarian
MALME-3M melanoma = test system: MALME-3M melanoma
MDA-MB-468 breast = test system: MDA-MB-468 breast
MDA-MB-435 melanoma = test system: MDA-MB-435 melanoma
UO-31 renal = test system: UO-31 renal
IGROV1 ovarian = test system: IGROV1 ovarian
MOLT-4 leukemia = test system: MOLT-4 leukemia
BT-549 breast = test system: BT-549 breast
HOP-62 NSCLC = test system: HOP-62 NSCLC
NCI-H522 lung = test system: NCI-H522 lung
NCI-H226 lung = test system: NCI-H226 lung
SR leukemia = test system: SR leukemia
COLO 205 colon = test system: COLO 205 colon
NCI-H460 NSCLC = test system: NCI-H460 NSCLC
UACC-257 melanoma = test system: UACC-257 melanoma
OVCAR-3 ovarian = test system: OVCAR-3 ovarian
SK-MEL-5 melanoma = test system: SK-MEL-5 melanoma
MCF7 breast = test system: MCF7 breast
EKVX NSCLC = test system: EKVX NSCLC
RPMI-8226 leukemia = test system: RPMI-8226 leukemia
HCC-2998 colon = test system: HCC-2998 colon

## O=c1[nH]c(=O)n(C2CC(O)C(CO)O2)cc1F (configuration not stated)
T-47D breast
  GI50: 11500 nM
SW-620 colon
  GI50: 28.7 nM
HS 578T breast
  GI50: 28.2 nM
  TGI: 171 nM
ACHN renal
  GI50: 30.2 nM
PC-3 prostate
  GI50: 90.4 nM
RXF 393 renal
  GI50: 2920 nM
  TGI: 25900 nM
OVCAR-8 ovarian
  GI50: 79.8 nM
SN12C renal
  GI50: 28.9 nM
  TGI: 238 nM
NCI-H322M lung
  GI50: 345 nM
SNB-75 CNS
  GI50: 16.9 nM
DU-145 prostate
  GI50: 35.9 nM
SF-268 CNS
  GI50: 13 nM
MDA-MB-231 breast
  GI50: 444 nM
CAKI-1 renal
  GI50: 69.5 nM
KM12 colon
  GI50: 844 nM
A549 NSCLC
  GI50: 31.8 nM
SF-295 CNS
  GI50: 13.2 nM
  TGI: 53.2 nM
HOP-92 NSCLC
  GI50: 2480 nM
OVCAR-5 ovarian
  GI50: 321 nM
UACC-62 melanoma
  GI50: 177 nM
U251 glioblastoma
  GI50: 112 nM
TK-10 renal
  GI50: 721 nM
786-0 renal
  GI50: 69.9 nM
OVCAR-4 ovarian
  GI50: 27400 nM
CCRF-CEM leukemia
  GI50: 23.8 nM
  TGI: 97.2 nM
K-562 leukemia
  GI50: 351 nM
  TGI: 9400 nM
LOX IMVI melanoma
  GI50: 35.4 nM
SNB-19 CNS
  GI50: 39.4 nM
SF-539 CNS
  GI50: 11.2 nM
  TGI: 102 nM
A498 renal
  TGI: 59500 nM
HT29 colon
  GI50: 53.9 nM
HCT-15 colon
  GI50: 55.1 nM
SK-MEL-28 melanoma
  GI50: 101 nM
  TGI: 3610 nM
NCI/ADR-RES ovarian
  GI50: 214 nM
NCI-H23 lung
  GI50: 112 nM
HCT-116 colon
  GI50: 52.9 nM
  TGI: 40600 nM
M14 melanoma
  GI50: 104 nM
HL-60(TB) leukemia
  GI50: 25.5 nM
  TGI: 115 nM
SK-OV-3 ovarian
  GI50: 112 nM
MALME-3M melanoma
  GI50: 3990 nM
MDA-MB-468 breast
  GI50: 13.7 nM
  TGI: 53.7 nM
MDA-MB-435 melanoma
  GI50: 1380 nM
UO-31 renal
  GI50: 26.1 nM
IGROV1 ovarian
  GI50: 559 nM
MOLT-4 leukemia
  TGI: 15.7 nM
BT-549 breast
  TGI: 2780 nM

## O=C(Cc1ccc(-c2ccc(OCCN3CCOCC3)cc2)cn1)NCc1ccccc1
SW-620 colon
  GI50: 30.7 nM
  TGI: > 100000 nM
HS 578T breast
  GI50: 18.6 nM
  TGI: 38.9 nM
ACHN renal
  GI50: 80.1 nM
  TGI: 45100 nM
PC-3 prostate
  GI50: 34.5 nM
  TGI: > 100000 nM
RXF 393 renal
  GI50: 17.5 nM
  TGI: 39.7 nM
HOP-62 NSCLC
  GI50: 29.8 nM
  TGI: 3420 nM
OVCAR-8 ovarian
  GI50: 31.4 nM
  TGI: 134 nM
NCI-H522 lung
  GI50: 17.6 nM
  TGI: 44.9 nM
SN12C renal
  GI50: 38.9 nM
  TGI: 16600 nM
NCI-H322M lung
  GI50: 38.1 nM
  TGI: 71600 nM
DU-145 prostate
  GI50: 30.2 nM
  TGI: 174 nM
SF-268 CNS
  GI50: 35.2 nM
  TGI: 513 nM
NCI-H226 lung
  GI50: 34.6 nM
  TGI: 220 nM
MDA-MB-231 breast
  GI50: 53.2 nM
  TGI: > 100000 nM
SR leukemia
  GI50: 12.3 nM
  TGI: 25.6 nM
CAKI-1 renal
  GI50: 40.1 nM
  TGI: > 100000 nM
KM12 colon
  GI50: 30 nM
  TGI: 2010 nM
A549 NSCLC
  GI50: 50.2 nM
  TGI: > 100000 nM
SF-295 CNS
  GI50: 15.7 nM
  TGI: 38 nM
HOP-92 NSCLC
  GI50: 38.1 nM
  TGI: 2950 nM
OVCAR-5 ovarian
  GI50: 80 nM
  TGI: > 100000 nM
COLO 205 colon
  GI50: 16.3 nM
  TGI: 34.5 nM
U251 glioblastoma
  GI50: 32 nM
  TGI: 150 nM
TK-10 renal
  GI50: 39.9 nM
  TGI: 45900 nM
786-0 renal
  GI50: 32.3 nM
  TGI: 220 nM
OVCAR-4 ovarian
  GI50: 41.1 nM
  TGI: 39700 nM
CCRF-CEM leukemia
  GI50: 18.4 nM
  TGI: 33.3 nM
NCI-H460 NSCLC
  GI50: 20.2 nM
  TGI: 45.4 nM
K-562 leukemia
  GI50: 19.8 nM
  TGI: 54.1 nM
LOX IMVI melanoma
  GI50: 49.8 nM
  TGI: 298 nM
SNB-19 CNS
  GI50: 41.3 nM
  TGI: 3110 nM
SF-539 CNS
  GI50: 21.4 nM
  TGI: 53.7 nM
A498 renal
  GI50: 31.8 nM
  TGI: 625 nM
UACC-257 melanoma
  GI50: 45.7 nM
  TGI: 43700 nM
HT29 colon
  GI50: 28.3 nM
  TGI: > 100000 nM
HCT-15 colon
  GI50: 32.1 nM
  TGI: 163 nM
SK-MEL-28 melanoma
  GI50: 38.6 nM
  TGI: > 100000 nM
OVCAR-3 ovarian
  GI50: 17.4 nM
  TGI: 41.7 nM
NCI/ADR-RES ovarian
  GI50: 17.7 nM
  TGI: 39.3 nM
NCI-H23 lung
  GI50: 22.8 nM
  TGI: 60.3 nM
HCT-116 colon
  GI50: 31.8 nM
  TGI: 709 nM
M14 melanoma
  GI50: 18.5 nM
  TGI: 42.2 nM
HL-60(TB) leukemia
  GI50: 16.1 nM
  TGI: 29.7 nM
SK-OV-3 ovarian
  GI50: 32.7 nM
  TGI: 2670 nM
SK-MEL-5 melanoma
  GI50: 20.3 nM
  TGI: 46.6 nM
MDA-MB-468 breast
  GI50: 15.6 nM
  TGI: 30.6 nM
MDA-MB-435 melanoma
  GI50: 15.1 nM
  TGI: 30.7 nM
MCF7 breast
  GI50: 49.9 nM
  TGI: 7190 nM
UO-31 renal
  GI50: 66.5 nM
  TGI: > 100000 nM
EKVX NSCLC
  GI50: 42.4 nM
  TGI: 99400 nM
RPMI-8226 leukemia
  GI50: 14.2 nM
  TGI: 27.7 nM
IGROV1 ovarian
  GI50: 61.2 nM
  TGI: 54400 nM
MOLT-4 leukemia
  GI50: 15.3 nM
  TGI: 29.8 nM
BT-549 breast
  GI50: 28.3 nM
  TGI: 179 nM
HCC-2998 colon
  GI50: 20.4 nM
  TGI: 133 nM
